Experimental data: patent US20030202935A1, “Composition and formulations and their use as nociceptic, anti-axniolytic and anabolic agents” (priority 2000, published 2003)

Assays:
Intracellular Adenosine = system: Intracellular Adenosine; parameters: species or system Fischer 344 rats; settings: rat, in vivo, po
Description: Folinic acid (50 mg/kg) was administered intraperitoneally once daily for fourteen days. […] Hearts were removed from animals and flash frozen in liquid nitrogen within 10 seconds of death. Liver and lungs were removed en bloc and flash frozen within 30 seconds of death. Brain tissue was subsequently dissected.

[1] = cited from earlier work

SMILES	adenosine levels in the brain (Intracellular Adenosine)	half life [1]
Nc1nc(=O)c2c([nH]1)NCC(CNc1ccc(C(=O)N[C@@H](CCC(=O)O)C(=O)O)cc1)N2C=O (mixture of isomers) [Folinic Acid (F.A.), folinic acid]	dramatic increase	
Nc1ncnc2c1ncn2[C@@H]1O[C@H](CO)[C@@H](O)[C@H]1O [adenosine]		about a second
